The text below walks through data of patent publication US11547705B2, “Combination of a PD-1 antagonist and a VEGF-R/FGFR/RET tyrosine kinase inhibitor for treating cancer” (MERCK SHARP & DOHME LLC, priority 2015, dated 2023).

In assay [1] the test system is mouse colon carcinoma cell line CT26.WT. The assay is described as follows: Anti-tumor effect in subcutaneous CT26.WT transplantation model, lenvatinib mesilate and anti-PD-L1 antibody. The class given is in vivo. Conditions: BALB/c mice, lenvatinib mesilate oral once daily, anti-PD-L1 antibody 500 μg/head i.p. every 3 days. The method, then: A RPMI1640 culture medium containing 10% FBS and penicillin/streptomycin was used to culture a mouse colon carcinoma cell line CT26.WT (ATCC number: CRL-2638). Hank's Balanced Salt Solution (HBSS) was used to prepare a cell suspension having a concentration of 3.0×10^7 cells/mL. The cell suspension was subcutaneously transplanted at a dose of 0.1 mL on the right lateral side of the body of each of 7-week-old mice (BALB/cAnNCrlCrlj, female, Charles River Laboratories Japan Inc.). 8 days after the transplantation, an electronic digital caliper (Digimatic™ Caliper; Mitutoyo Corporation) was used to measure the short and long diameters of a tumor of interest. The following equation was used to calculate the tumor volume TV. Tumor Volume TV (mm^3)=Long Diameter (mm)×Short Diameter (mm)×Short Diameter (mm)/2.
(§1) Based on the tumor volumes on the first day of administration, grouping was carried out such that the average values of the tumor volumes were almost the same. A 1 mg/ml solution of lenvatinib mesilate was prepared using water for injection (Otsuka Pharmaceutical Co., Ltd.) and was orally administered at a dose of 0.2 mL/20 g mouse body weight once daily for 14 days. 0.2 mL of an administration sample containing 2.5 mg/mL of an anti-mouse-PD-L1 antibody, which had been diluted with PBS, was intraperitoneally administered (at a dosage of 500 μg/head) once every 3 days a total of 5 times (day 1, day 4, day 7, day 10, and day 13, with the day of the grouping set to day 1). To the control group, Otsuka water for injection was orally administered at a dose of 0.2 mL/20 g mouse body weight once daily for 14 days. Each group including 5 mice was used to conduct the experiment. The day (day 15) after the final administration, the respective tumor volumes TV were determined for the control group, the lenvatinib administration group, the anti-mouse-PD-L1 antibody administration group, and the combination administration group. The values obtained by logarithmically transforming the tumor volumes were used to carry out statistical analysis.

Assay [2] has as its system mouse lung cancer cell line LL/2 (LLc1). As to the kind of experiment: Anti-tumor effect in subcutaneous LL/2 (LLc1) transplantation model. In kind it is in vivo. Conditions: C57BL/6J mice, lenvatinib oral once daily, anti-PD-1 antibody 500 μg/head i.p. every 3 days. The protocol:
A DMEM culture medium (high-glucose type) containing 10% fetal bovine serum (FBS) and penicillin/streptomycin was used to culture a mouse lung cancer cell line LL/2 (LLc1) (ATCC number: CRL-1642). Next, phosphate buffered saline (PBS) was used to prepare a cell suspension having a concentration of 2.0×10^7 cells/mL. The cell suspension was subcutaneously transplanted at a dose of 0.1 mL on the right lateral side of the body of each of 7-week-old mice (C57BL/6J, female, Charles River Laboratories Japan Inc.). Eight (8) days after the transplantation, an electronic digital caliper (Digimatic™ Caliper; Mitutoyo Corporation) was used to measure the short and long diameters of a tumor of interest. The following equation was used to calculate the tumor volume TV. Tumor Volume TV (mm^3)=Long Diameter (mm)×Short Diameter (mm)×Short Diameter (mm)/2.
as §1, with “lenvatinib” for “lenvatinib mesilate”, “anti-mouse-PD-1 antibody (Clone: RMP1-14, BioXCell, Catalog#: BE0146),” for “anti-mouse-PD-L1 antibody,”, “(TV)” for “TV”, “anti-mouse-PD-1” for “anti-mouse-PD-L1”

In another assay the target is VEGFR2 (Homo sapiens, UniProt P35968). Conditions: according to kinetic analysis; background statement; cited from earlier work.
VEGFR2, sequence (P35968 20-1356, species assumed): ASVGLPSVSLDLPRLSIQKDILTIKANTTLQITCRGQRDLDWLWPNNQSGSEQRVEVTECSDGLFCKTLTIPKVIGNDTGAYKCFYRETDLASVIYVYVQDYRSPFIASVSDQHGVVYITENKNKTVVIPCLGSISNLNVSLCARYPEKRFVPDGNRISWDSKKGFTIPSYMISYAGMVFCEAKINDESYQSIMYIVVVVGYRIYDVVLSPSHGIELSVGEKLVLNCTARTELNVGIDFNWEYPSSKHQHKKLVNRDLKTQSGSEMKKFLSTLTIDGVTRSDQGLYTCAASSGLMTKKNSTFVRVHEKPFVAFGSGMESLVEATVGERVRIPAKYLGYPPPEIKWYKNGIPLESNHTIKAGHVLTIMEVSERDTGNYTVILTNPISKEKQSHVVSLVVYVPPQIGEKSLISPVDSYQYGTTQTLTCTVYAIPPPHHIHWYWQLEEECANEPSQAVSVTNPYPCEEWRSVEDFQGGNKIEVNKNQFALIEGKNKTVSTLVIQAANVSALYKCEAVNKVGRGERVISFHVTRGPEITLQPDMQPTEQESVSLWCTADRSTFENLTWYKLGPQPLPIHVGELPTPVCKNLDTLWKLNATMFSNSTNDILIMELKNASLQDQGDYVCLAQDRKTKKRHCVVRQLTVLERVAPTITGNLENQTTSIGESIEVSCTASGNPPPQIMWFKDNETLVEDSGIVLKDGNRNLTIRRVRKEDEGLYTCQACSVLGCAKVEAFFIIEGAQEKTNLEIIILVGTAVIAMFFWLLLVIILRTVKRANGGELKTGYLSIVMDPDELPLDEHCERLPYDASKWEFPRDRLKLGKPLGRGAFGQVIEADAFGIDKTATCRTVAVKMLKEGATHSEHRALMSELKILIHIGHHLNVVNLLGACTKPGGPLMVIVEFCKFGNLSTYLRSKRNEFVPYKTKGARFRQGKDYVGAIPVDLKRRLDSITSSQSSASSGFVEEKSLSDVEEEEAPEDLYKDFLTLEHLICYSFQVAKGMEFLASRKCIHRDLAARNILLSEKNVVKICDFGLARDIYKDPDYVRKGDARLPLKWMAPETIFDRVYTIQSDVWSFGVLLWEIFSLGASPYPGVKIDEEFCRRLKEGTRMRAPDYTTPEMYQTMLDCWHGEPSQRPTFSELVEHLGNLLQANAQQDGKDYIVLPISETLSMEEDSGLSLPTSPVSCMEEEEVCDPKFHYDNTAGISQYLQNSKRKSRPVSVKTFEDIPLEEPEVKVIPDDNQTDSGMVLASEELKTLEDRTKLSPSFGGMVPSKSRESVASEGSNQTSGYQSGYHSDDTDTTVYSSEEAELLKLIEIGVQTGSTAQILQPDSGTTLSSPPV
The mark [3] stands for this setting: Day 1 (day of grouping, first day of administration).

Each structure is given as a SMILES string.

For the molecule `COc1cc2nccc(Oc3ccc(NC(=O)NC4CC4)c(Cl)c3)c2cc1C(N)=O` [Lenvatinib, 4-[3-chloro-4-(cyclopropylaminocarbonyl)aminophenoxy]-7-methoxy-6-quinolinecarboxamide], the “Tumor Volume TV” value in assay [1] (setting [3]) is on record as 154 mm^3; in assay [1] (Day 4) it was 472 mm^3; in assay [1] (Day 8) it was 1172 mm^3; in assay [1] (Day 11) it was 1555 mm^3; in assay [2] (setting [3]), 100 mm^3; in assay [2] (Day 4), 243 mm^3. Further, the “Tumor Volume TV” value in assay [2] (Day 8) was determined as 394 mm^3; in assay [2] (Day 10), 553 mm^3; in assay [2] (Day 13), 837 mm^3; in assay [2] (Day 15 (day after final administration)) it was 1143 mm^3. Besides, the “inhibition of kinase activity” value at VEGFR2 was “rapid and potent inhibition of kinase activity”.
